Laboratory results reported in ChEMBL document CHEMBL4507297, “Data for DCP probe PF-04457845” (2021).

Columns and labels:
[1] = target: Serine/threonine-protein kinase ICK (Homo sapiens) (UniProt Q9UPZ9); conditions: Compound concentration 1000.0 nM
[2] = target: Sodium-dependent noradrenaline transporter (Homo sapiens) (UniProt P23975); conditions: Compound concentration 10.0 uM
[3] = target: Myosin-IIIa (Homo sapiens) (UniProt Q8NEV4); conditions: Compound concentration 1000.0 nM
[4] = tested on: Epidermal growth factor receptor (Homo sapiens), P00533 [UNDEFINED MUTATION]; conditions: Compound concentration 1000.0 nM
[5] = tested on: Mast/stem cell growth factor receptor Kit (Homo sapiens), P10721 [V559D]; conditions: Compound concentration 1000.0 nM
[6] = tested on: Phosphatidylinositol 4,5-bisphosphate 3-kinase catalytic subunit alpha isoform (Homo sapiens), P42336 [M1043I]; conditions: Compound concentration 1000.0 nM
[7] = target: Serine/threonine-protein kinase WNK3 (Homo sapiens) (UniProt Q9BYP7); conditions: Compound concentration 1000.0 nM
[8] = target: Cyclin-dependent kinase 14 (Homo sapiens) (UniProt O94921); conditions: Compound concentration 1000.0 nM
[9] = target: Serine/threonine-protein kinase RIO2 (Homo sapiens) (UniProt Q9BVS4); conditions: Compound concentration 1000.0 nM
[10] = tested on: Receptor-type tyrosine-protein kinase FLT3 (Homo sapiens), P36888 [D835V]; conditions: Compound concentration 1000.0 nM
[11] = target: Tyrosine-protein kinase Yes (Homo sapiens) (UniProt P07947); conditions: Compound concentration 1000.0 nM
[12] = target: Misshapen-like kinase 1 (Homo sapiens) (UniProt Q8N4C8); conditions: Compound concentration 1000.0 nM
[13] = target: Serine/threonine-protein kinase LATS2 (Homo sapiens) (UniProt Q9NRM7); conditions: Compound concentration 1000.0 nM
[14] = target: Ribosomal protein S6 kinase alpha-5 (Homo sapiens) (UniProt O75582); conditions: Compound concentration 1000.0 nM
Sequence of Ribosomal protein S6 kinase alpha-5 (Homo sapiens) (O75582 whole entry, looked up): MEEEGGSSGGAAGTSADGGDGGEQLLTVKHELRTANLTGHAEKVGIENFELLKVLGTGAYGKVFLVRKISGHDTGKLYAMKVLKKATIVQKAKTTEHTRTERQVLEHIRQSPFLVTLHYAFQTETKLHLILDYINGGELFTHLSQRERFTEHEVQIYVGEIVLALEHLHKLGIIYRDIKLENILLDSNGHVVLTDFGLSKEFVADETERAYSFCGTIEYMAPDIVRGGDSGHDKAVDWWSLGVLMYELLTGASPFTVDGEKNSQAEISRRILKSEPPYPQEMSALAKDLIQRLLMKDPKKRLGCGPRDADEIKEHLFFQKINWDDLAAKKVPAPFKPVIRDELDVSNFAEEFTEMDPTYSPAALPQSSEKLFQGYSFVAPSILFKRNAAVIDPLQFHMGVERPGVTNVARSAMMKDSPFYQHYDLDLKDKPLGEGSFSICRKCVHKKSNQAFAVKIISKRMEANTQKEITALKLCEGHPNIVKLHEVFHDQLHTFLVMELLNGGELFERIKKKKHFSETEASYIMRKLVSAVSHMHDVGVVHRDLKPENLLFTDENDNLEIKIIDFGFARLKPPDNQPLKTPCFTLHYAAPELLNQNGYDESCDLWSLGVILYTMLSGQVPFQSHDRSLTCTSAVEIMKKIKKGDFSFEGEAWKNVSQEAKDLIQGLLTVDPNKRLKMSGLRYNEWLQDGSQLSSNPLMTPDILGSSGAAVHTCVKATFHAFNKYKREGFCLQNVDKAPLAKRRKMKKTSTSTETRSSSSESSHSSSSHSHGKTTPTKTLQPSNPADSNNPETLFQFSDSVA

[15] = target: Ephrin type-A receptor 1 (Homo sapiens) (UniProt P21709); conditions: Compound concentration 1000.0 nM
Sequence of Ephrin type-A receptor 1 (Homo sapiens) (P21709 whole entry): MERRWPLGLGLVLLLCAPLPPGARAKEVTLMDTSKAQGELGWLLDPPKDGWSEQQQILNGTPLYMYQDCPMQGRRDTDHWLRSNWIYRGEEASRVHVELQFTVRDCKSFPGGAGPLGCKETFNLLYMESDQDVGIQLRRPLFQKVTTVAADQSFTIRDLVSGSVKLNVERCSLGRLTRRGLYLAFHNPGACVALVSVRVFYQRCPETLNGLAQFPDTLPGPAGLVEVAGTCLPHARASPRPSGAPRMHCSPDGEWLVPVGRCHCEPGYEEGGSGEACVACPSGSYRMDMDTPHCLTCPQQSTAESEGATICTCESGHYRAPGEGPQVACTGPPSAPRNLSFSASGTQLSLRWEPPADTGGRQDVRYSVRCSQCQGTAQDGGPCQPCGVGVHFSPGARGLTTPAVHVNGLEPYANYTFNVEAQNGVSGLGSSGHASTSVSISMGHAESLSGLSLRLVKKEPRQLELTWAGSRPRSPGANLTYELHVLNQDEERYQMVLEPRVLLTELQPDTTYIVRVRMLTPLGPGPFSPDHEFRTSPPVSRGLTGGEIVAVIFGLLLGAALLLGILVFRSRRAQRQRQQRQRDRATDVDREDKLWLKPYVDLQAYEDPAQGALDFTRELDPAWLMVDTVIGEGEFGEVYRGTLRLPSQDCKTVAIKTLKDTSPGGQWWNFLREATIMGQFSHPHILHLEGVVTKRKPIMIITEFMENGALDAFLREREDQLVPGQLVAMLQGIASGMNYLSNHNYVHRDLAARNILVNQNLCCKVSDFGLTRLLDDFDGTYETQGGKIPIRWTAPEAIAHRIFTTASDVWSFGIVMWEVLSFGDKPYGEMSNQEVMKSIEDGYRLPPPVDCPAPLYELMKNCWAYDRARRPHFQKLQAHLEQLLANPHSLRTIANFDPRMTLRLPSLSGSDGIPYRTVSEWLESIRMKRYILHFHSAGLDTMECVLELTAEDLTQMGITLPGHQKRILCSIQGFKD

[16] = target: Serine/threonine-protein kinase 32B (Homo sapiens) (UniProt Q9NY57); conditions: Compound concentration 1000.0 nM
[17] = target: Vascular endothelial growth factor receptor 3 (Homo sapiens) (UniProt P35916); conditions: Compound concentration 1000.0 nM
[18] = target: Tyrosine-protein kinase Fgr (Homo sapiens) (UniProt P09769); conditions: Compound concentration 1000.0 nM
[19] = tested on: Receptor-type tyrosine-protein kinase FLT3 (Homo sapiens), P36888 [R834Q]; conditions: Compound concentration 1000.0 nM
[20] = target: Mitogen-activated protein kinase 10 (Homo sapiens) (UniProt P53779); conditions: Compound concentration 1000.0 nM
[21] = target: Hormonally up-regulated neu tumor-associated kinase (Homo sapiens) (UniProt P57058); conditions: Compound concentration 1000.0 nM
[22] = target: Serine/threonine-protein kinase D1 (Homo sapiens) (UniProt Q15139); conditions: Compound concentration 1000.0 nM
[23] = target: Serine/threonine-protein kinase TAO1 (Homo sapiens) (UniProt Q7L7X3); conditions: Compound concentration 1000.0 nM
[24] = target: Serine/threonine-protein kinase pim-2 (Homo sapiens) (UniProt Q9P1W9); conditions: Compound concentration 1000.0 nM
[25] = target: High affinity nerve growth factor receptor (Homo sapiens) (UniProt P04629); conditions: Compound concentration 1000.0 nM
[26] = target: Alpha-2C adrenergic receptor (Homo sapiens) (UniProt P18825); conditions: Compound concentration 10.0 uM
Sequence of Alpha-2C adrenergic receptor (Homo sapiens) (P18825 whole entry): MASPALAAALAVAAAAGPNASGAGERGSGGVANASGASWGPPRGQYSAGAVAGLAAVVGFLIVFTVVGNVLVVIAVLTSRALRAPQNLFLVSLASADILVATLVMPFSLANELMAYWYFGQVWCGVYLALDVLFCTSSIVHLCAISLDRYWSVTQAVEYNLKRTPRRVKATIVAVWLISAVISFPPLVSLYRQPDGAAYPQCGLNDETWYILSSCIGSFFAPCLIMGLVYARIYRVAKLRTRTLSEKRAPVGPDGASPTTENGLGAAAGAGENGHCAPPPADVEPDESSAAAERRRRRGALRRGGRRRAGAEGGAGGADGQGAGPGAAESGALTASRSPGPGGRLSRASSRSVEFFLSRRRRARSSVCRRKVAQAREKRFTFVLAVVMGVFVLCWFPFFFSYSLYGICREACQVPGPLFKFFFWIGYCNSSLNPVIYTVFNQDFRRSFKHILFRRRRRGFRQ

[27] = target: Mitogen-activated protein kinase kinase kinase 19 (Homo sapiens) (UniProt Q56UN5); conditions: Compound concentration 1000.0 nM
[28] = target: Phosphatidylinositol 4,5-bisphosphate 3-kinase catalytic subunit beta isoform (Homo sapiens) (UniProt P42338); conditions: Compound concentration 1000.0 nM
[29] = target: Casein kinase I isoform gamma-2 (Homo sapiens) (UniProt P78368); conditions: Compound concentration 1000.0 nM
[30] = target: Serine/threonine-protein kinase NLK (Homo sapiens) (UniProt Q9UBE8); conditions: Compound concentration 1000.0 nM
Sequence of Serine/threonine-protein kinase NLK (Homo sapiens) (Q9UBE8 whole entry): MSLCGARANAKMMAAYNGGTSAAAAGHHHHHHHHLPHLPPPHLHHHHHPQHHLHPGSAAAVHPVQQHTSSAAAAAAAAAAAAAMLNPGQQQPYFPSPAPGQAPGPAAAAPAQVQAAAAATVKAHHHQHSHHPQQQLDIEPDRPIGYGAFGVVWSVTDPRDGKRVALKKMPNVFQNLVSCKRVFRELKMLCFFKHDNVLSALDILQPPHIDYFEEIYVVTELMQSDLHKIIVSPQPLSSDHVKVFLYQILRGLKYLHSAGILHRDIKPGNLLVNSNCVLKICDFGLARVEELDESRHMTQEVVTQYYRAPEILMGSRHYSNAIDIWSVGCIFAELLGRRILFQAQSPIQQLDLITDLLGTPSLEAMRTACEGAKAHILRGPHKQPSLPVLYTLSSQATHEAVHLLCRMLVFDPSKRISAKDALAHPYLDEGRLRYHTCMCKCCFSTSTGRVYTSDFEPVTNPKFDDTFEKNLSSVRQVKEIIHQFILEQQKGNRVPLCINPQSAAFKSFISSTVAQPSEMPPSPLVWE

[31] = tested on: Fibroblast growth factor receptor 3 (Homo sapiens), P22607 [G697C]; conditions: Compound concentration 1000.0 nM
[32] = target: Serine/threonine-protein kinase SIK3 (Homo sapiens) (UniProt Q9Y2K2); conditions: Compound concentration 1000.0 nM
[33] = target: Mitogen-activated protein kinase kinase kinase kinase 5 (Homo sapiens) (UniProt Q9Y4K4); conditions: Compound concentration 1000.0 nM
[34] = target: 5-hydroxytryptamine receptor 6 (Homo sapiens) (UniProt P50406); conditions: Compound concentration 10.0 uM
[35] = target: Mitogen-activated protein kinase kinase kinase 2 (Homo sapiens) (UniProt Q9Y2U5); conditions: Compound concentration 1000.0 nM
[36] = tested on: Receptor-type tyrosine-protein kinase FLT3 (Homo sapiens), P36888 [D835Y]; conditions: Compound concentration 1000.0 nM
[37] = target: Leukocyte tyrosine kinase receptor (Homo sapiens) (UniProt P29376); conditions: Compound concentration 1000.0 nM
[38] = target: Tyrosine-protein kinase Fyn (Homo sapiens) (UniProt P06241); conditions: Compound concentration 1000.0 nM
[39] = target: Ephrin type-A receptor 4 (Homo sapiens) (UniProt P54764); conditions: Compound concentration 1000.0 nM
Sequence of Ephrin type-A receptor 4 (Homo sapiens) (P54764 whole entry): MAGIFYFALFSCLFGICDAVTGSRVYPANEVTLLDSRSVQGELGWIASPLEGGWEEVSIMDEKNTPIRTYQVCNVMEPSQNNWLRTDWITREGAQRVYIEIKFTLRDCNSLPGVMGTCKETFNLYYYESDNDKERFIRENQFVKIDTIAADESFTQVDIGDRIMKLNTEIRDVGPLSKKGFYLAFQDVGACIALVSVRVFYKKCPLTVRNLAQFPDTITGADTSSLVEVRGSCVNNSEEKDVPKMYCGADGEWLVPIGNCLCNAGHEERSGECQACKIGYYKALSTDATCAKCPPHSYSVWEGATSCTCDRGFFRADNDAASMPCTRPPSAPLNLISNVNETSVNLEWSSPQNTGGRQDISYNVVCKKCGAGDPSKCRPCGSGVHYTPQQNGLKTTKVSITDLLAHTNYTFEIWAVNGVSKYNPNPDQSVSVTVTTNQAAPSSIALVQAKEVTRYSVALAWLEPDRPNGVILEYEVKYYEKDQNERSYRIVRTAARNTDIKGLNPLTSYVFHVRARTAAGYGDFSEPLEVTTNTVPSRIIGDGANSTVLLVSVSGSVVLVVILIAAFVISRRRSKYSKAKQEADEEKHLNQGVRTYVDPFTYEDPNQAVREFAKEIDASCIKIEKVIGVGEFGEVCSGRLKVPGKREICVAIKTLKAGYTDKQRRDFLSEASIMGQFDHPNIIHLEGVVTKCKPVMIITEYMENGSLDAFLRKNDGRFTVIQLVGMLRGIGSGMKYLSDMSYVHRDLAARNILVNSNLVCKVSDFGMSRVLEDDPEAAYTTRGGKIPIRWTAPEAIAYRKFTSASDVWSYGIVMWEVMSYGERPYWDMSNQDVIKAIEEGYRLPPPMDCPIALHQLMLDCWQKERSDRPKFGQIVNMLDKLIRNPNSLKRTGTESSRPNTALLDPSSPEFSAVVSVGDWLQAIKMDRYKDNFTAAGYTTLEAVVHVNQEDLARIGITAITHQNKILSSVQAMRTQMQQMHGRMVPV

[40] = tested on: Tyrosine-protein kinase ABL1 (Homo sapiens), P00519 [F317I]; conditions: Compound concentration 1000.0 nM
Sequence of Tyrosine-protein kinase ABL1 (Homo sapiens), P00519 [F317I] (P00519 whole entry F317I): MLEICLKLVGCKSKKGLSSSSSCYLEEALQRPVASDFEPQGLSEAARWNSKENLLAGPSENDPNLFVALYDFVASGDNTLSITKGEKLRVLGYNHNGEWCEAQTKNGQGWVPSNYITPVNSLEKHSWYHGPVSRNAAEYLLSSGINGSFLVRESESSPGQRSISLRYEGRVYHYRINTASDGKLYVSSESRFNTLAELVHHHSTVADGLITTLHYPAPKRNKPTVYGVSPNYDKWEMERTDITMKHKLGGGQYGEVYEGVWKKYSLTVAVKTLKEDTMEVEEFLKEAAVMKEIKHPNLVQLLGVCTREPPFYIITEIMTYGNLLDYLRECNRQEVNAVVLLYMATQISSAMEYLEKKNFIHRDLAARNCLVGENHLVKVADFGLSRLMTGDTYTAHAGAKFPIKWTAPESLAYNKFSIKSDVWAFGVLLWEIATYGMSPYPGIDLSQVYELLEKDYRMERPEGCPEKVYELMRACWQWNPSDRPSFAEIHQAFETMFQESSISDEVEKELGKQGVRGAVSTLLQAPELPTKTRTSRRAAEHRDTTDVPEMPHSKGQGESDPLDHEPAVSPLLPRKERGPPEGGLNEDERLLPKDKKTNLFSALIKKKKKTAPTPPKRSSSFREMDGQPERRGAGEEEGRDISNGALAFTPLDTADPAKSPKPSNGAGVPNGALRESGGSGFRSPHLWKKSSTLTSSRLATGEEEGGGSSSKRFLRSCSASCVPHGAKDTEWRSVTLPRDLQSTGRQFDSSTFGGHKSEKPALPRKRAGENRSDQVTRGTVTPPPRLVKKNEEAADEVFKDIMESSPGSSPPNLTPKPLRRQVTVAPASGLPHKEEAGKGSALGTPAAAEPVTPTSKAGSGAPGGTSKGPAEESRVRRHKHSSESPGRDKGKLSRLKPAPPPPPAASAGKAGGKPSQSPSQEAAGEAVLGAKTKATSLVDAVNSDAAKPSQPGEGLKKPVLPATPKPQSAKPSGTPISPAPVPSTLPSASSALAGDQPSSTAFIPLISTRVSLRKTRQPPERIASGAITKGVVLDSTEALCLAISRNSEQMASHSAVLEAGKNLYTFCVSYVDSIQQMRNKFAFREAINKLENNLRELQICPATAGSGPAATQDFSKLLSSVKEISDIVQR

[41] = target: Histamine H3 receptor (Homo sapiens) (UniProt Q9Y5N1); conditions: Compound concentration 10.0 uM
[42] = target: Interleukin-1 receptor-associated kinase 3 (Homo sapiens) (UniProt Q9Y616); conditions: Compound concentration 1000.0 nM
[43] = target: Vascular endothelial growth factor receptor 1 (Homo sapiens) (UniProt P17948); conditions: Compound concentration 1000.0 nM
[44] = tested on: Hepatocyte growth factor receptor (Homo sapiens), P08581 [Y1235D]; conditions: Compound concentration 1000.0 nM
[45] = target: Beta-adrenergic receptor kinase 1 (Homo sapiens) (UniProt P25098); conditions: Compound concentration 1000.0 nM

SMILES: O=C(Nc1cccnn1)N1CC(C/C=C/c2cncc(Oc3ccc(C(F)(F)F)cn3)n2)C1
- residual activity [1]: 80%
- inhibition [2]: -1%
- residual activity [3]: 100%
- residual activity [4]: 100%
- residual activity [5]: 64%
- residual activity [6]: 100%
- residual activity [7]: 84%
- residual activity [8]: 100%
- residual activity [9]: 77%
- residual activity [10]: 77%
- residual activity [11]: 100%
- residual activity [12]: 100%
- residual activity [13]: 100%
- residual activity [14]: 100%
- residual activity [15]: 100%
- residual activity [16]: 100%
- residual activity [17]: 100%
- residual activity [18]: 100%
- residual activity [19]: 66%
- residual activity [20]: 77%
- residual activity [21]: 89%
- residual activity [22]: 100%
- residual activity [23]: 91%
- residual activity [24]: 100%
- residual activity [25]: 82%
- inhibition [26]: 0.34%
- residual activity [27]: 90%
- residual activity [28]: 79%
- residual activity [29]: 100%
- residual activity [30]: 100%
- residual activity [31]: 100%
- residual activity [32]: 74%
- residual activity [33]: 94%
- inhibition [34]: 7.76%
- residual activity [35]: 79%
- residual activity [36]: 100%
- residual activity [37]: 100%
- residual activity [38]: 100%
- residual activity [39]: 100%
- residual activity [40]: 53%
- inhibition [41]: 17.3%
- residual activity [42]: 100%
- residual activity [43]: 100%
- residual activity [44]: 100%
- residual activity [45]: 96%

SMILES: O=C(Nc1cccnn1)N1CCC(=Cc2cccc(Oc3ccc(C(F)(F)F)cn3)c2)CC1
- residual activity [1]: 91%
- inhibition [2]: 7.86%
- residual activity [3]: 100%
- residual activity [4]: 69%
- residual activity [5]: 75%
- residual activity [6]: 65%
- residual activity [7]: 100%
- residual activity [8]: 89%
- residual activity [9]: 100%
- residual activity [10]: 100%
- residual activity [11]: 100%
- residual activity [12]: 100%
- residual activity [13]: 84%
- residual activity [14]: 71%
- residual activity [15]: 100%
- residual activity [16]: 82%
- residual activity [17]: 80%
- residual activity [18]: 63%
- residual activity [19]: 100%
- residual activity [20]: 100%
- residual activity [21]: 87%
- residual activity [22]: 100%
- residual activity [23]: 100%
- residual activity [24]: 97%
- residual activity [25]: 100%
- inhibition [26]: 79.3%
- residual activity [27]: 85%
- residual activity [28]: 100%
- residual activity [29]: 92%
- residual activity [30]: 100%
- residual activity [31]: 100%
- residual activity [32]: 83%
- residual activity [33]: 100%
- inhibition [34]: 40.6%
- residual activity [35]: 100%
- residual activity [36]: 100%
- residual activity [37]: 74%
- residual activity [38]: 100%
- residual activity [39]: 100%
- residual activity [40]: 100%
- inhibition [41]: 8.73%
- residual activity [42]: 86%
- residual activity [43]: 100%
- residual activity [44]: 100%
- residual activity [45]: 100%
